# Assay results from the supplement of paper PMC11451515.
# Test system: SEM cells
# Test: cell viability relative to DMSO control; higher = less cytotoxic
# Conditions: 48 h
# Method in brief: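 Before seeding, each leukemia line was adapted for at least four passages in each medium. NOMO1 or SEM cells (500 cells/well) and P12-Ichikawa cells (1000 cells/well) went into 1536-well plates at 5 μl, then received library compounds in DMSO by pin dosing across 11 threefold concentrations, 47 μM to 0.79 nM. Readout was CellTiter-Glo One luminescence after 48 h at 37°C, and viability is given as a per-plate percentage of DMSO wells, with cell-free wells as background.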
# [1] = HPLM + 10% dialyzed FBS, 0.000781 µM
# [2] = HPLM + 10% dialyzed FBS, 0.00234 µM
# [3] = HPLM + 10% dialyzed FBS, 0.00702 µM
# [4] = HPLM + 10% dialyzed FBS, 0.0211 µM
# [5] = HPLM + 10% dialyzed FBS, 0.0632 µM
# [6] = HPLM + 10% dialyzed FBS, 0.19 µM
# [7] = HPLM + 10% dialyzed FBS, 0.569 µM
# [8] = HPLM + 10% dialyzed FBS, 1.71 µM
# [9] = HPLM + 10% dialyzed FBS, 5.12 µM
# [10] = HPLM + 10% dialyzed FBS, 15.4 µM
# [11] = HPLM + 10% dialyzed FBS, 46.1 µM
# [12] = RPMI 5 mM glucose + 10% FBS, 0.000781 µM
# [13] = RPMI 5 mM glucose + 10% FBS, 0.00234 µM
# [14] = RPMI 5 mM glucose + 10% FBS, 0.00702 µM
# [15] = RPMI 5 mM glucose + 10% FBS, 0.0211 µM
# [16] = RPMI 5 mM glucose + 10% FBS, 0.0632 µM
# [17] = RPMI 5 mM glucose + 10% FBS, 0.19 µM
# [18] = RPMI 5 mM glucose + 10% FBS, 0.569 µM
# [19] = RPMI 5 mM glucose + 10% FBS, 1.71 µM
# [20] = RPMI 5 mM glucose + 10% FBS, 5.12 µM
# [21] = RPMI 5 mM glucose + 10% FBS, 15.4 µM
# [22] = RPMI 5 mM glucose + 10% FBS, 46.1 µM
# [23] = RPMI 5 mM glucose + 10% dialyzed FBS, 0.000781 µM
# [24] = RPMI 5 mM glucose + 10% dialyzed FBS, 0.00234 µM
# [25] = RPMI 5 mM glucose + 10% dialyzed FBS, 0.00702 µM
# [26] = RPMI 5 mM glucose + 10% dialyzed FBS, 0.0211 µM
# [27] = RPMI 5 mM glucose + 10% dialyzed FBS, 0.0632 µM
# [28] = RPMI 5 mM glucose + 10% dialyzed FBS, 0.19 µM
# [29] = RPMI 5 mM glucose + 10% dialyzed FBS, 0.569 µM
# [30] = RPMI 5 mM glucose + 10% dialyzed FBS, 1.71 µM
# [31] = RPMI 5 mM glucose + 10% dialyzed FBS, 5.12 µM
# [32] = RPMI 5 mM glucose + 10% dialyzed FBS, 15.4 µM
# [33] = RPMI 5 mM glucose + 10% dialyzed FBS, 46.1 µM
Compound,cell viability [1],cell viability [2],cell viability [3],cell viability [4],cell viability [5],cell viability [6],cell viability [7],cell viability [8],cell viability [9],cell viability [10],cell viability [11],cell viability [12],cell viability [13],cell viability [14],cell viability [15],cell viability [16],cell viability [17],cell viability [18],cell viability [19],cell viability [20],cell viability [21],cell viability [22],cell viability [23],cell viability [24],cell viability [25],cell viability [26],cell viability [27],cell viability [28],cell viability [29],cell viability [30],cell viability [31],cell viability [32],cell viability [33]
O=C(Nc1cccnn1)N1CCC(=Cc2cccc(Oc3ccc(C(F)(F)F)cn3)c2)CC1,81.8%,86.8%,84.4%,21.1%,94.9%,98%,92.5%,85%,90%,81.3%,75.6%,104%,115%,112%,17.1%,119%,127%,121%,139%,118%,103%,87.8%,92.8%,92.6%,89.8%,17%,113%,112%,106%,98.4%,93.7%,78.3%,55.8%
Cc1ncc([N+](=O)[O-])n1CC(C)O (configuration not stated),60.5%,75.1%,69.3%,75.5%,57.6%,71.4%,91.4%,88.1%,81.6%,82.8%,13.3%,78.9%,99.3%,89.4%,99.8%,64.6%,97.8%,102%,110%,96.2%,101%,14.8%,84.2%,101%,98.4%,99.3%,84.6%,104%,118%,119%,110%,99.6%,14%
NC/1=N/C(=O)N(/C=N1)[C@@H]2O[C@H](CO)[C@@H](O)[C@H]2O,85.7%,107%,117%,106%,76.2%,100%,104%,105%,75.4%,24.5%,3.65%,95.7%,107%,99.5%,102%,70.9%,110%,90.4%,94.8%,75.1%,35.3%,7.85%,90.8%,87.8%,82%,90.1%,69.7%,93.5%,82.3%,74.6%,38.9%,6.43%,3.29%
C[C@@]1(C(=O)Nc2ccc(F)nc2)CCCN1c1nc(Nc2cc(C3CC3)[nH]n2)c2cccn2n1,90.8%,98.6%,106%,97.2%,101%,98.8%,81.9%,103%,30.6%,21.4%,9.04%,56.6%,68.8%,64.6%,70.6%,72.6%,77.2%,66.1%,60.1%,10.9%,8.82%,2.55%,95.4%,89.5%,102%,107%,112%,92.3%,104%,96.5%,18.8%,16.4%,6.22%
